ChEMBL document CHEMBL5052821, “Galactokinase inhibitors for the treatment and prevention of associated diseases and disorders” (2019)
Active and inactive are the calls of the source. The rule behind the calls is not given here.

Tested on: Bacteria
Experiment: Inhibition of bacterial CDP-ME kinase assessed as ATP depletion up to 57 uM measured by bioluminescent kinase Glo assay
Settings: dose microM <=57

Compound | inhibition
CC1=C(C(=O)n2ccc3ccccc32)C(c2ccccc2Br)N=C(Nc2nc3ccccc3o2)N1 (stereo not given) | inactive
CC1=C(C(=O)Nc2nncs2)C(c2ccccc2Br)N=C(Nc2nc3ccccc3o2)N1 (stereo not given) | inactive
CC1=C(C(=O)Nc2ccon2)C(c2nn(C)cc2Cl)N=C(Nc2nc3ccccc3o2)N1 (stereo not given) | inactive
CC1=C(C(=O)N(C)c2ccccc2C)C(c2ccccc2Br)N=C(Nc2nc3ccccc3o2)N1 (stereo not given) | inactive
COc1ccc(NC(=O)C2=C(C)NC(Nc3nc4ccccc4o3)=NC2c2ccccc2Br)cc1 (stereo not given) | inactive
O=C1CCCC2=C1C(c1ccncc1Cl)N=C(Nc1nc3ccccc3o1)N2 (stereo not given) | inactive
O=C1CCCC2=C1C(c1cccnc1Cl)N=C(Nc1nc3ccccc3o1)N2 (stereo not given) | inactive
O=C1CCC2=C1C(c1ccccc1Cl)N=C(Nc1nc3ccccc3o1)N2 (stereo not given) | inactive
CC1=C(C(=O)Nc2ccc(Cl)cc2)C(c2ccccc2Br)N=C(Nc2nc3ccccc3o2)N1 (stereo not given) | inactive
O=C1CCCC2=C1C(c1ccc(F)cc1)N=C(Nc1nc3ccccc3o1)N2 (stereo not given) | inactive
CC1=C(C(=O)Nc2nc3ccccc3s2)C(c2nn(C)cc2Cl)N=C(Nc2nc3ccccc3o2)N1 (stereo not given) | inactive
CC1=C(C(=O)NC2CCCC2)C(c2n[nH]cc2Cl)N=C(Nc2nc3ccccc3o2)N1 (stereo not given) | inactive
O=C1CCCC2=C1C(c1ccccc1Br)N=C(Nc1nc3ccccc3o1)N2 (stereo not given) | inactive
O=C1CCCC2=C1C(c1ccccc1Cl)N=C(Nc1nc3ccccc3o1)N2 (stereo not given) | inactive
CC1=C(C(=O)Nc2ccccc2C)C(c2ccccc2Br)N=C(Nc2nc3ccccc3o2)N1 (stereo not given) | inactive
O=C1CCCC2=C1C(c1cccnc1Br)N=C(Nc1nc3ccccc3o1)N2 (stereo not given) | inactive
O=C1CCCC2=C1C(c1ncccc1C(F)(F)F)N=C(Nc1nc3ccccc3o1)N2 (stereo not given) | inactive
CC1=C(C(=O)Nc2nccs2)C(c2ccccc2Br)N=C(Nc2nc3ccccc3o2)N1 (stereo not given) | inactive
O=C1CCCC2=C1C(c1n[nH]cc1Cl)NC(Nc1nc3ccccc3o1)=N2 (stereo not given) | inactive
O=C1CCCC2=C1C(c1ccccc1C(F)(F)F)N=C(Nc1nc3ccccc3o1)N2 (stereo not given) | inactive

Compound | inhibition
O=C1CCCC2=C1C(c1ccncc1Br)N=C(Nc1nc3ccccc3o1)N2 (stereo not given) | inactive
O=C1CCCC2=C1C(c1ccccc1I)N=C(Nc1nc3ccccc3o1)N2 (stereo not given) | inactive
CC1=C(C(=O)NC2CC2)C(c2n[nH]cc2Cl)N=C(Nc2nc3ccccc3o2)N1 (stereo not given) | inactive
CC1=C(C(=O)Nc2ccc(C)cc2)C(c2ccccc2Br)N=C(Nc2nc3ccccc3o2)N1 (stereo not given) | inactive
CC1=C(C(=O)Nc2ccon2)C(c2ccccc2Br)N=C(Nc2nc3ccccc3o2)N1 (stereo not given) | inactive
CC1=C(C(=O)NC2CC2)C(c2nn(C)cc2Cl)N=C(Nc2nc3ccccc3o2)N1 (stereo not given) | inactive
CNC(=O)C1=C(C)NC(Nc2nc3ccccc3o2)=NC1c1nn(C)cc1Cl (stereo not given) | inactive
CC1=C(C(=O)Nc2noc3ccccc23)C(c2nn(C)cc2Cl)N=C(Nc2nc3ccccc3o2)N1 (stereo not given) | inactive
CC1=C(C(=O)N(C)C)C(c2ccccc2Br)N=C(Nc2nc3ccccc3o2)N1 (stereo not given) | inactive
O=C1CCCC2=C1C(c1cnccc1C(F)(F)F)N=C(Nc1nc3ccccc3o1)N2 (stereo not given) | inactive
CC1=C(C(=O)Nc2nnc(-c3ccccc3)s2)C(c2n[nH]cc2Cl)N=C(Nc2nc3ccccc3o2)N1 (stereo not given) | inactive
CC1=C(C(=O)Nc2ccccc2)C(c2ccccc2Br)N=C(Nc2nc3ccccc3o2)N1 (stereo not given) | inactive
COc1ccccc1NC(=O)C1=C(C)NC(Nc2nc3ccccc3o2)=NC1c1ccccc1Br (stereo not given) | inactive
CC1=C(C(=O)Nc2nncs2)C(c2nn(C)cc2Cl)N=C(Nc2nc3ccccc3o2)N1 (stereo not given) | inactive
CNC(=O)C1=C(C)NC(Nc2nc3ccccc3o2)=NC1c1n[nH]cc1Cl (stereo not given) | inactive
O=C1CCCC2=C1C(c1c(Cl)cccc1Cl)N=C(Nc1nc3ccccc3o1)N2 (stereo not given) | inactive
O=C1CCCC2=C1C(c1cccc(C(F)(F)F)c1)N=C(Nc1nc3ccccc3o1)N2 (stereo not given) | inactive
CC1=C(C(=O)NCc2ccccc2)C(c2ccccc2Br)N=C(Nc2nc3ccccc3o2)N1 (stereo not given) | inactive
CC1=C(C(=O)Nc2nc3ccccc3s2)C(c2n[nH]cc2Cl)N=C(Nc2nc3ccccc3o2)N1 (stereo not given) | inactive
CC1=C(C(=O)NC2CCCCC2)C(c2ccccc2Br)N=C(Nc2nc3ccccc3o2)N1 (stereo not given) | inactive

More lines, now with the values ahead:

inhibition | Compound
inactive | O=C1CCC2=C1C1(CCCC1)N=C(Nc1nc3ccccc3o1)N2
inactive | O=C1CCCC2=C1C(c1ccccc1)N=C(Nc1nc3ccccc3o1)N2 (stereo not given)
inactive | O=C1CCCC2=C1C(c1ccncc1)N=C(Nc1nc3ccccc3o1)N2 (stereo not given)
inactive | O=C1CCCC2=C1C1(CCC1)N=C(Nc1nc3ccccc3o1)N2
inactive | O=C1CCCC2=C1C1(CCSCC1)N=C(Nc1nc3ccccc3o1)N2
inactive | CC1CCC2(C1)N=C(Nc1nc3ccccc3o1)NC1=C2C(=O)CCC1 (stereo not given)
inactive | COc1ccccc1C1N=C(Nc2nc3ccccc3o2)NC2=C1C(=O)CCC2 (stereo not given)
inactive | O=C1CCCC2=C1[C@@]1(CCC(c3ccccc3)C1)N=C(Nc1nc3ccccc3o1)N2 (stereo not given in full)
inactive | Cn1c(NC2=NC3(CCCC3)C3=C(CCCC3=O)N2)nc2ccccc21
inactive | Cc1ccc(C2N=C(Nc3nc4ccccc4o3)NC3=C2C(=O)CCC3)cc1 (stereo not given)
inactive | COc1ccc(C2N=C(Nc3nc4ccccc4o3)NC3=C2C(=O)CCC3)cc1 (stereo not given)
inactive | CNC(=O)C1=C(C)NC(Nc2nc3ccccc3o2)=NC12CCCC2
inactive | Cc1cccc(C2N=C(Nc3nc4ccccc4o3)NC3=C2C(=O)CCC3)c1 (stereo not given)
inactive | CC1(C)CC(=O)C2=C(C1)NC(Nc1nc3ccccc3o1)=NC21CCCC1
inactive | O=C1CC(c2ccccc2)CC2=C1C1(CCCCC1)N=C(Nc1nc3ccccc3o1)N2 (stereo not given)
inactive | COc1cccc(C2N=C(Nc3nc4ccccc4o3)NC3=C2C(=O)CCC3)c1 (stereo not given)
inactive | CN(C)c1ccc(C2N=C(Nc3nc4ccccc4o3)NC3=C2C(=O)CCC3)cc1 (stereo not given)
inactive | CC1(C)CC(=O)C2=C(C1)NC(Nc1nc3ccccc3o1)=NC21CCCCC1
inactive | O=C1CC(c2ccccc2)CC2=C1C1(CCCC1)N=C(Nc1nc3ccccc3o1)N2 (stereo not given)
inactive | O=C1CCCC2=C1C1(CCCC1)N=C(Nc1nc3cc4ccccc4cc3o1)N2
inactive | O=C1CCCC2=C1C(c1cccc(Cl)c1)N=C(Nc1nc3ccccc3o1)N2 (stereo not given)
inactive | Cc1ccc(C2N=C(Nc3nc4ccccc4o3)NC3=C2C(=O)CCC3)s1 (stereo not given)
inactive | Cc1cc(C2N=C(Nc3nc4ccccc4o3)NC3=C2C(=O)CCC3)n[nH]1 (stereo not given)
inactive | O=C1CCCC2=C1C1(CCCOC1)N=C(Nc1nc3ccccc3o1)N2 (stereo not given)
inactive | O=C1CCCC2=C1C(c1ccn[nH]1)N=C(Nc1nc3ccccc3o1)N2 (stereo not given)

inhibition | Compound
inactive | O=C1CCCC2=C1C1(CCCC1)N=C(Nc1nc3ccccc3n1Cc1ccccc1)N2
inactive | Cn1cc(Br)c(C2N=C(Nc3nc4ccccc4o3)NC3=C2C(=O)CCC3)n1 (stereo not given)
inactive | Cc1ccsc1C1N=C(Nc2nc3ccccc3o2)NC2=C1C(=O)CCC2 (stereo not given)
inactive | O=C1CCCC2=C1C1(CCCC1)N=C(Nc1nc3ccccc3o1)N2
inactive | CC1(C)N=C(Nc2nc3ccccc3o2)NC2=C1C(=O)CCC2
inactive | Cn1ncc(Cl)c1C1N=C(Nc2nc3ccccc3o2)NC2=C1C(=O)CCC2 (stereo not given)
inactive | Cc1ccc2oc(NC3=NC4(CCCC4)C4=C(CCCC4=O)N3)nc2c1
inactive | O=C1CCCC2=C1C1(CCCC1)N=C(Nc1nc3cc(-c4ccccc4)ccc3o1)N2
inactive | O=C1CCCC2=C1C1(CCS(=O)(=O)C1)N=C(Nc1nc3ccccc3o1)N2 (stereo not given)
inactive | CCC1CCC2(C1)N=C(Nc1nc3ccccc3o1)NC1=C2C(=O)CCC1 (stereo not given)
inactive | CC1=C(C(=O)Nc2nc3ccccc3s2)C2(CCCC2)N=C(Nc2nc3ccccc3o2)N1
inactive | O=C1CCCC2=C1C(c1n[nH]cc1Br)N=C(Nc1nc3ccccc3o1)N2 (stereo not given)
inactive | O=C1CCCC2=C1C1(CCCC1)N=C(Nc1nc3cc(Br)ccc3o1)N2
inactive | O=C1CCCC2=C1C1(CCOCC1)N=C(Nc1nc3ccccc3o1)N2
inactive | O=C1CCCC2=C1C1(CCCC1)N=C(Nc1nc3cc(Cl)ccc3o1)N2
inactive | CC1=C(C(=O)Nc2nncs2)C2(CCCC2)N=C(Nc2nc3ccccc3o2)N1
inactive | O=C1CCCC2=C1C(c1cccc(F)c1)N=C(Nc1nc3ccccc3o1)N2 (stereo not given)
inactive | CC1=C(C(=O)Nc2ccon2)C2(CCCC2)N=C(Nc2nc3ccccc3o2)N1
inactive | O=C1CCCC2=C1C(c1ncccc1Br)N=C(Nc1nc3ccccc3o1)N2 (stereo not given)
inactive | O=C1CCCC2=C1C(c1cccnc1)N=C(Nc1nc3ccccc3o1)N2 (stereo not given)
inactive | O=C1CCCC2=C1C1(CCSC1)N=C(Nc1nc3ccccc3o1)N2 (stereo not given)
inactive | O=C1CCCC2=C1C(c1ccc(Cl)cc1)N=C(Nc1nc3ccccc3o1)N2 (stereo not given)
inactive | CC1=C(C(=O)Nc2nc3ccccc3o2)C2(CCCC2)N=C(Nc2nc3ccccc3o2)N1
inactive | Cc1ccc2nc(NC3=NC4(CCCC4)C4=C(CCCC4=O)N3)oc2c1

Tested on: HEK293
Experiment: Cytotoxicity against human HEK293 cells measured after 48 hrs by Cell Titer Glo assay
Assay type: toxicity, cell-based
Settings: hek293, 48 h

Compound | Activity
O=C1CCC2=C1C1(CCCC1)N=C(Nc1nc3ccccc3o1)N2 | Non-Toxic
O=C1CCCC2=C1C1(CCC1)N=C(Nc1nc3ccccc3o1)N2 | Non-Toxic
Cn1c(NC2=NC3(CCCC3)C3=C(CCCC3=O)N2)nc2ccccc21 | Non-Toxic
CC1(C)CC(=O)C2=C(C1)NC(Nc1nc3ccccc3o1)=NC21CCCC1 | Non-Toxic
O=C1CC(c2ccccc2)CC2=C1C1(CCCCC1)N=C(Nc1nc3ccccc3o1)N2 (stereo not given) | Non-Toxic
O=C1CCCC2=C1C1(CCCC1)N=C(Nc1nc3cc4ccccc4cc3o1)N2 | Non-Toxic
O=C1CCCC2=C1C1(CCCC1)N=C(Nc1nc3ccccc3o1)N2 | Non-Toxic
Cc1ccc2oc(NC3=NC4(CCCC4)C4=C(CCCC4=O)N3)nc2c1 | Non-Toxic
O=C1CCCC2=C1C1(CCCC1)N=C(Nc1nc3cc(Br)ccc3o1)N2 | Non-Toxic
O=C1CCCC2=C1C1(CCCC1)N=C(Nc1nc3cc(Cl)ccc3o1)N2 | Non-Toxic
Cc1ccc2nc(NC3=NC4(CCCC4)C4=C(CCCC4=O)N3)oc2c1 | Non-Toxic
